“And” between values parts separate entries of the source, which are not always exact repeats. Identical values can stand only once. Counter-ions that a name gives are not always drawn. Marks after values point to notes of the source that are not given here.
Columns and labels:
[1] = system: cynomolgus monkeys; test: Scopolamine dose-response on CANTAB vsPAL task performance
Description: Thirteen experimentally naïve male cynomolgus monkeys (Macaca Fasicularis; 3–5 years of age; 5.0–7.5 kg at the beginning of the study) served as subjects. Subjects were housed in pairs, separated during testing (Monday through Friday) and re-paired after feeding in the afternoon. Subjects were fed standard monkey chow (Harlan Teklad Global 20% protein Primate Diet 2050) in sufficient quantities to ensure normal growth while maintaining sufficient motivation to perform the cognitive testing [30]. Water was continuously available except during behavioral testing. Fresh fruit, toys and foraging devices were routinely provided in the monkey colony rooms.
For behavioral testing subjects were seated comfortably in restraint chairs (Primate Products, Immokalee, FL), and placed in individual, sound attenuated chambers (Med-Associates, St. Albans, VT), equipped with lights, a white noise generator and a monitoring camera. A touch-sensitive computer monitor was within easy reach and session events were controlled by a Monkey CANTAB test station; (Lafayette Instruments, Lafayette, IN) and Whisker Control [45]. Following correct responses, a dispenser delivered 190 mg banana-flavored pellets (Bioserv, Frenchtown PA).
Ten subjects were trained to perform the CANTAB vsPAL test as previously described [38, 46]. Briefly, the test required the animal to associate a stimulus (abstract shape) with a given spatial location on the computer screen (one of the four corners; S1 Fig). Ten trials each of increasing difficulty (2-, 3- or 4- stimuli) were presented. Trials began with the ‘sample phase’ where stimuli are presented and touched sequentially in their respective locations with a 1 sec delay between stimuli. Following 5 sec where the screen was blank, the choice phase began. The same stimulus was presented in all four corners of the screen for all difficulty levels. […] After a 1 sec screen blank another stimulus was presented in all four corners. If the animal touched the correct location for all shapes in the choice phase on the first attempt the trial was recorded as ‘correct on the initial attempt’. […] The same trial could be repeated up to 5 additional times.
If the animal learned the sequence by the 6th attempt, the trial was recorded as ‘eventual correct’, or ‘incorrect’ if not. […] Additional measures were the percent completion (the proportion of trials on which both sample and choice responses were made), and response latency (time from sample onset to the screen touch in the choice phase, averaged across difficulty conditions).
Drug testing was conducted on Mondays and Thursdays. An additional baseline session was conducted on Tuesdays. […] Additional animals were included in later studies as their performance improved.
There was a washout period of at least 2 weeks between studies.
Accuracy measures (i.e. percent initially correct and percent eventually correct) were analyzed with repeated measures analysis of variance (RM-ANOVA) with the two within-subject factors of difficulty (mean of number of stimuli per trial and overall mean) and treatment. Latencies to respond in all choice phases and percent task completed for the entire session were analyzed by one way RM ANOVA. […] Statistical tests were performed using OriginPro v 9.1 (OriginLab Co., Northampton, MA). Missing data were filled with the mean of the respective cell to enable RM ANOVA computation.

[2] = system: scopolamine-treated cynomolgus monkeys; test: Scopolamine-induced impairment of vsPAL task performance, treatment + scopolamine; format: in vivo, cynomolgus monkeys (Macaca Fasicularis); details: for scopolamine impairment: difference between vehicle+vehicle and vehicle+scopolamine, % correct eventual: 4-stimuli condition; for Percent Correct on Initial Attempt (SEM), 2 stimuli / Percent Correct on Initial Attempt (SEM), 3 stimuli / Percent Correct on Initial Attempt (SEM), 4 stimuli: Vehicle + Scopolamine; for mean (cohen's d calculations): eventual correct, 4-stimuli
Description: Doses cited refer to the free base form of the compounds. […] All drugs were administered intramuscularly (i.m.) in a dosing volume of 0.1–0.2 ml/kg.
On days when compound testing occurred, approximately half the cohort received one dose and the remainder another dose of the same compound and therefore dose order was staggered between animals. With the exception of EVP-6124, all other compounds were tested in a single dose response study.
Cohen’s d values of >0.2, >0.5 and >0.8 are described using the conventions of small, medium, and large effects, respectively.

[3] = Scopolamine 0.003 mg/kg, i.m., MEAN
[4] = Scopolamine 0.003 mg/kg, i.m., individual animals
[5] = Scopolamine 0.0056 mg/kg, i.m., MEAN
[6] = Scopolamine 0.0056 mg/kg, i.m., individual animals
[7] = Scopolamine 0.01 mg/kg i.m., MEAN
[8] = Scopolamine 0.01 mg/kg i.m., individual animals
[9] = Average Individualized Scopolamine (0.0045-0.0067 mg/kg) + Vehicle, individual animals
[10] = Average Individualized Scopolamine + Vehicle, MEAN of 8 animals
[11] = Average Individualized Scopolamine + Vehicle, group MEAN
[12] = Average Individualized Scopolamine + Vehicle, group MEAN of 6 animals
[13] = EVP DRC 2, Average Individualized Scopolamine + Vehicle, group MEAN of 7 animals

CN1[C@@H]2C[C@@H](OC(=O)[C@H](CO)c3ccccc3)C[C@H]1[C@@H]1O[C@@H]12 [Scopolamine, Scopolamine HCl] was tested, and the “Eventual Correct, 2 Stimuli” value [1, 3] was 100.0%, the “Eventual Correct, 3 Stimuli” value [1, 3] was 100.0% and the “Eventual Correct, 4 Stimuli” value [1, 3] was 90.0%. For the same compound, the “Eventual Correct, Overall Mean % Correct” value [1, 3] was 96.7%, the “Initial Correct, 3 Stimuli” value [1, 3] was 68.7% and the “Initial Correct, 4 Stimuli” value [1, 3] was 57.5%. The “Initial Correct, Overall Mean % Correct” value [1, 3] was 74.2%, the “Initial correct, 2 Stimuli” value [1, 3] was 96.3% and the “% Completion” value [1, 4] was 63.0% and 97.0% and 100.0% and 84.0%. The “Average Response Latency, ms (Avg Rsp Lat)” value (shortened to “Average Response Latency, ms”) [1, 4] was 6153.3 ms and 1831.0 ms and 1549.1 ms and 1787.2 ms and 2129.2 ms and 2342.9 ms and 2289.1 ms and 1548.2 ms, the “Eventual Correct, 2 Stimuli” value [1, 4] was 100.0% and the “Eventual Correct, 3 Stimuli” value [1, 4] was 100.0%. The “Eventual Correct, 4 Stimuli” value [1, 4] was 90.0% and 100.0%, the “Eventual Correct, Overall Mean % Correct” value [1, 4] was 93.3% and 96.7% and 100.0% and the “Initial Correct, 3 Stimuli” value [1, 4] was 70.0% and 100.0% and 40.0% and 60.0%. For the same compound, the “Initial Correct, 4 Stimuli” value [1, 4] was 30.0% and 70.0% and 100.0% and 50.0% and 60.0%, the “Initial Correct, Overall Mean % Correct” value [1, 4] was 63.3% and 100.0% and 73.3% and 66.7% and 70.0% and 76.7% and the “Initial correct, 2 Stimuli” value [1, 4] was 90.0% and 100.0%. The “Eventual Correct, 2 Stimuli” value [1, 5] was 95.0%, the “Eventual Correct, 3 Stimuli” value [1, 5] was 84.3% and the “Eventual Correct, 4 Stimuli” value [1, 5] was 51.1%. The “Eventual Correct, Overall Mean % Correct” value [1, 5] was 76.8%, the “Initial Correct, 3 Stimuli” value [1, 5] was 54.3% and the “Initial Correct, 4 Stimuli” value [1, 5] was 32.8%. The “% Completion” value [1, 6] was 21.0% and 62.0% and 51.0% and 97.0% and 88.0% and 91.0% and 34.5%, the “Average Response Latency, ms” value [1, 6] was 1881.3 ms and 2302.7 ms and 2706.5 ms and 2004.6 ms and 2231.8 ms and 2896.7 ms and 2108.4 ms and 1817.8 ms and the “Eventual Correct, 2 Stimuli” value [1, 6] was 60.0% and 100.0%. For the same compound, the “Eventual Correct, 3 Stimuli” value [1, 6] was 100.0% and 50.0% and 90.0% and 70.0%, the “Eventual Correct, 4 Stimuli” value [1, 6] was 50.0% and 16.7% and 70.0% and 0.0% and 90.0% and the “Eventual Correct, Overall Mean % Correct” value [1, 6] was 83.3% and 55.6% and 86.7% and 90.0% and 56.7% and 96.7%. For the same compound, the “Initial Correct, 3 Stimuli” value [1, 6] was 70.0% and 40.0% and 20.0% and 60.0% and 50.0%, the “Initial Correct, 4 Stimuli” value [1, 6] was 30.0% and 16.7% and 50.0% and 0.0% and 60.0% and the “Initial Correct, Overall Mean % Correct” value [1, 6] was 26.0% and 63.3% and 76.7% and 53.3%. The “Initial correct, 2 Stimuli” value [1, 6] was 50.0% and 90.0% and 100.0%, the “Eventual Correct, 2 Stimuli” value [1, 7] was 96.3% and the “Eventual Correct, 4 Stimuli” value [1, 7] was 36.8%. The “Eventual Correct, Overall Mean % Correct” value [1, 7] was 68.5%, the “Initial Correct, 3 Stimuli” value [1, 7] was 47.8% and the “Initial Correct, 4 Stimuli” value [1, 7] was 20.1%. The “% Completion” value [1, 8] was 63.6% and 78.0% and 52.6% and 100.0% and 43.5% and 50.8% and 31.0%, the “Average Response Latency, ms” value [1, 8] was 3290.4 ms and 1872.3 ms and 1904.8 ms and 2135.7 ms and 2272.7 ms and 2295.1 ms and 2067.4 ms and 1369.7 ms and the “Eventual Correct, 2 Stimuli” value [1, 8] was 100.0% and 90.0% and 80.0%. For the same compound, the “Eventual Correct, 3 Stimuli” value [1, 8] was 100.0% and 60.0% and 90.0% and 14.3%, the “Eventual Correct, 4 Stimuli” value [1, 8] was 44.4% and 25.0% and 0.0% and the “Eventual Correct, Overall Mean % Correct” value [1, 8] was 81.5% and 75.0% and 53.3% and 89.3%. The “Initial Correct, 3 Stimuli” value [1, 8] was 50.0% and 70.0% and 90.0% and 30.0% and 0.0% and 12.5%, the “Initial Correct, 4 Stimuli” value [1, 8] was 33.3% and 25.0% and 0.0% and 22.2% and the “Initial Correct, Overall Mean % Correct” value [1, 8] was 68.3% and 36.7% and 60.7% and 26.7% and 20.9% and 53.4%. The “Initial correct, 2 Stimuli” value [1, 8] was 90.0% and 60.0% and 30.0%, the “scopolamine impairment: difference between vehicle+vehicle and vehicle+scopolamine, % correct eventual” value ([2]; donepezil study) was 49.4% and the “scopolamine impairment: difference between vehicle+vehicle and vehicle+scopolamine, % correct eventual” value ([2]; first EVP-6124 study) was 20.5%. The “% Completion” value [2, 9] was 57.3% and 62.4% and 94.5% and 85.3% and 87.0% and 81.6%, the “Average Response Latency” value [2, 9] was 1943.4 ms and 2791.5 ms and 2008.6 ms and 2389.3 ms and 2808.7 ms and 2502.8 ms and the “Eventual Correct, 2 Stimuli” value [2, 9] was 90.0% and 100.0% and 95.0% and 97.5%. For the same compound, the “Eventual Correct, 3 Stimuli” value [2, 9] was 65.7% and 66.7% and 90.0%, the “Eventual Correct, 4 Stimuli” value [2, 9] was 36.7% and 32.2% and 47.1% and 63.3% and 32.5% and 69.2% and the “Eventual Correct, Overall Mean % Correct” value [2, 9] was 66.2% and 66.3% and 73.2% and 84.4% and 71.7% and 85.6%. For the same compound, the “Initial Correct, 3 Stimuli” value [2, 9] was 40.0% and 47.5% and 30.0% and 42.5% and 60.0%, the “Initial Correct, 4 Stimuli” value [2, 9] was 16.7% and 22.5% and 20.0% and the “Initial Correct, Overall Mean % Correct” value [2, 9] was 53.1% and 56.9% and 66.9%. For the same compound, the “Initial correct, 2 Stimuli” value [2, 9] was 60.0% and 95.0% and 70.0% and 87.5%, the “Average Response Latency (Avg Rsp Lat)” value [2, 10] was 2342.3 ms and the “Eventual Correct, 2 Stimuli” value [2, 10] was 98.1%. For the same compound, the “Eventual Correct, 4 Stimuli” value [2, 10] was 50.3%, the “Eventual Correct, Overall Mean % Correct” value [2, 10] was 76.1% and the “Initial Correct, 3 Stimuli” value [2, 10] was 46.2%. The “Initial Correct, 4 Stimuli” value [2, 10] was 19.5%, the “Initial correct, 2 Stimuli” value [2, 10] was 84.3% and the “% Completion” value [2, 11] was 83.8%. The “Average Response Latency (Avg rsp lat)” value [2, 11] was 1934.6 ms, the “Eventual Correct, 2 Stimuli” value [2, 11] was 99.7% and the “Eventual Correct, 3 Stimuli” value [2, 11] was 98.0%. The “Eventual Correct, Overall Mean % Correct” value [2, 11] was 92.3%, the “Initial Correct, 3 Stimuli” value [2, 11] was 70.0% and the “Initial Correct, Overall Mean % Correct” value [2, 11] was 65.4%. The “Initial correct, 2 Stimuli” value [2, 11] was 87.2%, the “% Completion” value [2, 12] was 78.0% and the “Average Response Latency” value [2, 12] was 2407.4 ms. The “Eventual Correct, 2 Stimuli” value [2, 12] was 97.1%, the “Eventual Correct, 4 Stimuli” value [2, 12] was 46.8% and the “Eventual Correct, Overall Mean % Correct” value [2, 12] was 74.6%. For the same compound, the “Initial Correct, 3 Stimuli” value [2, 12] was 49.2%, the “Average Response Latency (Avg rsp lat)” value [2, 13] was 2021.60 ms and the “Eventual Correct, 2 Stimuli” value [2, 13] was 99.5%. The “Eventual Correct, 3 Stimuli” value [2, 13] was 95.7%, the “Eventual Correct, 4 Stimuli” value [2, 13] was 65.7% and the “Eventual Correct, Overall Mean % Correct” value [2, 13] was 87.7%. For the same compound, the “Initial Correct, 3 Stimuli” value [2, 13] was 66.2%, the “Initial Correct, 4 Stimuli” value [2, 13] was 34.6% and the “Initial Correct, Overall Mean % Correct” value [2, 13] was 64.9%. The “Initial correct, 2 Stimuli” value [2, 13] was 91.9%, the “Percent Correct on Initial Attempt (SEM), 2 stimuli” value (from here on “Percent Correct … (SEM), 2 stimuli”) ([2]; BMS-933043 study) was 89.6% (1.8%) and the “Percent Correct on Initial Attempt (SEM), 3 stimuli” value (“Percent Correct … (SEM), 3 stimuli” for short) ([2]; BMS-933043 study) was 67.0% (5.0%). For the same compound, the “Percent Correct on Initial Attempt (SEM), 4 stimuli” value (“Percent Correct … (SEM), 4 stimuli” for short) ([2]; BMS-933043 study) was 37.3% (7.4%) ††, the “Percent Correct … (SEM), 2 stimuli” value ([2]; EVP-6124 study 1) was 87.3% (4.0%) and the “Percent Correct … (SEM), 3 stimuli” value ([2]; EVP-6124 study 1) was 70.0% (3.4%) ††. The “Percent Correct … (SEM), 4 stimuli” value ([2]; EVP-6124 study 1) was 38.8% (4.0%) ††, the “Percent Correct … (SEM), 2 stimuli” value ([2]; EVP-6124 study 2) was 91.9% (3.6%) and the “Percent Correct … (SEM), 3 stimuli” value ([2]; EVP-6124 study 2) was 66.2% (7.6%) †. The “Percent Correct … (SEM), 4 stimuli” value ([2]; EVP-6124 study 2) was 34.6% (4.2%) ††, the “Percent Correct … (SEM), 2 stimuli” value ([2]; RG3487 study) was 84.3% (2.8%) and the “Percent Correct … (SEM), 3 stimuli” value ([2]; RG3487 study) was 46.2% (8.0%) ††. The “Percent Correct … (SEM), 4 stimuli” value ([2]; RG3487 study) was 19.5% (4.9%) ††, the “Percent Correct … (SEM), 2 stimuli” value ([2]; donepezil study) was 79.6% (5.3%) and the “Percent Correct … (SEM), 3 stimuli” value ([2]; donepezil study) was 49.2% (6.5%) †. The “Percent Correct … (SEM), 4 stimuli” value ([2]; donepezil study) was 25.8% (4.5%) ††, the “mean (cohen's d calculations)” value ([2]; scop+vehicle, donepezil study) was 46.8 and the “mean (cohen's d calculations)” value ([2]; veh+scop, BMS-933043 study) was 65.7. For the same compound, the “mean (cohen's d calculations)” value ([2]; vehicle+scop, EVP-6124 study 2) was 65.7.

Reference: article PMC5736175, “Nicotinic alpha 7 receptor agonists EVP-6124 and BMS-933043, attenuate scopolamine-induced deficits in visuo-spatial paired associates learning” (PLoS ONE, 2017)
